Where “and” joins values, the source holds several entries; their conditions need not be identical. Identical values can stand only once.
How the values were obtained:
LmNMT = LmNMT (Leishmania major, UniProt Q4Q5S8); assay: biochemical; conditions: read-out: IC50 LmNMT
HsNMT1 = biological target: T1, HsNMT1 (Homo sapiens, UniProt P30419); assay: NMT enzyme inhibition assay (non-radioactive), human NMT; assay type: biochemical; conditions: for IC50: human NMT isoform 1 (HsNMT1), read-out: IC50 HsNMT; for selectivity factor: LdNMT IC50 versus human enzyme IC50
T1 sequence (P30419 1-496): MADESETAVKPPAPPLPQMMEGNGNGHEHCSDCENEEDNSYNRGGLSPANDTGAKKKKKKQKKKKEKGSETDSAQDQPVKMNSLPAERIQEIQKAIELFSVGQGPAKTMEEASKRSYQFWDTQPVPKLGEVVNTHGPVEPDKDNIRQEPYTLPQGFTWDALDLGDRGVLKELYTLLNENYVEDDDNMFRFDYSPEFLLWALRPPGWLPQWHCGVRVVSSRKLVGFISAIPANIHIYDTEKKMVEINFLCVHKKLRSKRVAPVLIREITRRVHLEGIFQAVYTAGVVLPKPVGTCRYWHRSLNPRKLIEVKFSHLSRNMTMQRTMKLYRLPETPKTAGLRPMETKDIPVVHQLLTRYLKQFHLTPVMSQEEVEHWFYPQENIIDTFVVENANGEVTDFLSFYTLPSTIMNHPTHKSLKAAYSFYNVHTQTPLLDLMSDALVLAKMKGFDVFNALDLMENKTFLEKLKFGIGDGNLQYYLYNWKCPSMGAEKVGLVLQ

LdNMT = biological target: T2, LdNMT (Leishmania donovani, UniProt D0AB09); assay: NMT enzyme inhibition assay (non-radioactive), L. donovani NMT; assay type: biochemical; conditions: for LE (ligand efficiency): LE = 1.4(-logLdNMT IC50)/N, N = number of non-H atoms; for IC50: read-out: IC50 LdNMT
T2 sequence (D0AB09 1-421): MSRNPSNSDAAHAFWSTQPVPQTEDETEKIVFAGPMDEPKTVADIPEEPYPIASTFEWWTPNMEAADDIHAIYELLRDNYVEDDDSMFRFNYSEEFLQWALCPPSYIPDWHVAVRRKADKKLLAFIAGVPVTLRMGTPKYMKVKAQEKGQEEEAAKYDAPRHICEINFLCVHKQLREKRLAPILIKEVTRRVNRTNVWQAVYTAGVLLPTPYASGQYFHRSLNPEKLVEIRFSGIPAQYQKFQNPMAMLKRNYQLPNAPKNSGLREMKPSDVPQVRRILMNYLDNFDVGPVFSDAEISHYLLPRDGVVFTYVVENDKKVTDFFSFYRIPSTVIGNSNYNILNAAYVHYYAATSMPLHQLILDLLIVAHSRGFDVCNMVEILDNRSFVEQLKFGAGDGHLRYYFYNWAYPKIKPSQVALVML

Sequence of LmNMT (Q4Q5S8 5-421 limits assumed): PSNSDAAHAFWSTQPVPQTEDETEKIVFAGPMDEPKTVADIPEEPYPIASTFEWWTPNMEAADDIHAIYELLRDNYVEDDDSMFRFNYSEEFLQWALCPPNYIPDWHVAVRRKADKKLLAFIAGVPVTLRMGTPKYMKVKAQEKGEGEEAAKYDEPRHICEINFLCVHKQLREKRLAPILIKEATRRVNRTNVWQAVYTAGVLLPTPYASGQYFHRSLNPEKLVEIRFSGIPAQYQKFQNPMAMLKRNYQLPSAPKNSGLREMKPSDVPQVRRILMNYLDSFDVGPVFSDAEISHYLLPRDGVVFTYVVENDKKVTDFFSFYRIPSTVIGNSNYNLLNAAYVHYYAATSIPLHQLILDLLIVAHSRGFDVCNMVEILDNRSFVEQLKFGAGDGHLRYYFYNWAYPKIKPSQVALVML

Row | SMILES | IC50 (LmNMT) | selectivity against HsNMT1 (HsNMT1; LdNMT over HsNMT1) | IC50 (HsNMT1) | LE (ligand efficiency) (LdNMT) | IC50 (LdNMT) | selectivity factor (HsNMT1)
1 | CN1CCC(N(C)c2nc(N(C)CCC#N)c3sccc3n2)CC1 [6KV] | 299 ± 89 nM | approximately tenfold | 3560 ± 490 nM | 0.34 | 250 nM and 247 nM | 
2 | N[C@@H](CC(=O)N1C[C@H](CO)[C@@H](c2ccc(Cl)cc2)C1)Cc1ccc(Cl)cc1 [A6K] | 31 ± 4 nM |  | 5000 nM and 5160 nM | 0.35 | 77 ± 7 nM | ~80
3 | c1cncc(CCNCc2cccc(-c3cccc(CN4CCc5ncsc5C4)c3)c2)c1 [CWZ] | 1020 ± 100 nM |  | 45000 nM and 45500 nM | 0.29 | 900 nM and 914 nM | 50
